# In patent EP0115690A1, “Dibenzocycloheptenylidenes” (AMERICAN HOME PRODUCTS CORPORATION, priority 1983, dated 1984):
# Assays:
# carrageenan paw edema = test: rat carrageenan edema test (hind paw); assay type: in vivo, male Sprague-Dawley rats; settings: for % Change From Control: paw edema 3 hours after carrageenan; for ED50: Rattus norvegicus, po, 3 h, read-out: dose exhibiting a 50% inhibition of edema
# Procedure: Groups of 6-8 male Sprague-Dawley rats weighing between 150-200 grams are used. Compounds of the invention, aspirin and indomethacin are administered orally in 0.5% methylcellulose. Vehicle alone is administered as a control. Sixty minutes after drug administration edema is induced by injection of 0.1 ml. of a 1% carrageenan solution in saline into the subplantar tissue of the rat's right hind paw. Two minutes later, paw volume is measured volumetrically with a plethysmograph and again 3 hours later. The mean volume of swelling for the control group is calculated and compared to the test groups. Percent change in paw edema is calculated and analysed statistically (unpaired, Student's t-test).
# [1] = system: adjuvant arthritis (left paw edema); test: rat adjuvant arthritis (daily dosing) assay; assay type: in vivo, Sprague-Dawley rats; settings: for % Change of Left Paw Edema at Day 16: daily regimen; for ED50: Rattus norvegicus, po, 384 h, read-out: estimated ED50
# Procedure: The ability of the compounds of the invention to inhibit immunologic-induced (chronic) inflammation is tested in adjuvant arthritis (daily dosing) assay.
# Polyarthritis is induced in groups of 6-10 Sprague-Dawley rats weighing between 180-220 g. by a subcutaneous injection into the right paw of dessicated Mycobacterium butyricum or tuberculosis (0.5 mg/0.1 ml) suspended in light mineral oil. Compounds of the invention, aspirin and indomethacin are administered orally in 0.5% methylcellulose using a daily regimen (except for weekends). Both hind paw volumes (ml.) are measured by mercury plethysmograph on day 0 or at the time of injection of the complete adjuvant. Increases in paw volume (viz. edema) are determined for the left paw on day 16. Statistical analysis of differences in paw edemas is performed by using the unpaired, Student's t-test.
# [2] = anti-inflammatory activity, comparison of isomers (test not specified); assay type: in vivo; settings: E-isomer versus Z-isomer
compound,measurement,setting,value
"O=C(O)/C=C1/c2ccccc2C=Cc2ccc(Cl)cc21 [Example 1G, Z-(3-Chloro-5H-dibenzo[a,d]cyclohepten-5-ylidene) acetic acid]",% Change From Control,carrageenan paw edema; oral dose 100-200 mg/kg,-20%
same,% Change of Left Paw Edema at Day 16,[1]; oral dose 25 mg/kg,-28%
O=C(O)/C=C1\c2ccccc2C=Cc2ccc(Cl)cc21 [Example 1H],anti-inflammatory activity relative to its Z-isomer,[2],several times more active
same,oral doses that inhibit carrageenan paw edema,carrageenan paw edema,20 to 200 mg/kg
same,% Change From Control,carrageenan paw edema; oral dose 20 mg/kg,-33%
same,% Change From Control,carrageenan paw edema; oral dose 60 mg/kg,-53%
same,% Change From Control,carrageenan paw edema; oral dose 180 mg/kg,-68%
same,% Change of Left Paw Edema at Day 16,[1]; oral dose 25 mg/kg,-59%
O=C(O)/C=C1/c2ccccc2C=Cc2cc(Cl)ccc21 [Example 2G],% Change From Control,carrageenan paw edema; oral dose 200 mg/kg,~-38%
O=C(O)/C=C1\c2ccccc2C=Cc2cc(Cl)ccc21 [Example 2H],% Change From Control,carrageenan paw edema; oral dose 200 mg/kg,-49%
same,% Change of Left Paw Edema at Day 16,[1]; oral dose 25 mg/kg,-59%
"COc1ccc2c(c1)C(=CC(=O)O)c1ccccc1C=C2 [Example 4F, (3-Methoxy-5H-dibenzo[a,d]cyclohepten-5-ylidene)acetic acid]",% Change From Control,carrageenan paw edema; oral dose >200 mg/kg,-50%
same,% Change of Left Paw Edema at Day 16,[1]; oral dose 15 mg/kg,-50%
O=C(O)C(Cl)=C1c2ccccc2C=Cc2ccccc21 [Example 6E],% Change From Control,carrageenan paw edema; oral dose 200 mg/kg,-31%
"C1=Cc2ccccc2C(=Cc2nnn[nH]2)c2ccccc21 [Example 7B, 5-(5H-Dibenzo[a,d]cyclohepten-5-ylidenemethyl) 1H-tetrazole]",% Change From Control,carrageenan paw edema; oral dose 200 mg/kg,~-38%
"O=C(O)C=C1c2ccccc2C=C(Br)c2ccccc21 [Example 8, E- and Z-(10-bromo-5H-dibenzo[a,d]cyclohepten-5-ylidene) acetic acid]",% Change From Control,carrageenan paw edema; oral dose 200 mg/kg,-34%
same,% Change of Left Paw Edema at Day 16,[1]; oral dose 25-50 mg/kg,-25 to -50%
O=C(O)C=C1c2ccccc2C=Cc2ccc(F)cc21 [Example 9],oral doses that inhibit carrageenan paw edema,carrageenan paw edema,20 to 200 mg/kg
same,% Change From Control,carrageenan paw edema; oral dose 200 mg/kg,-58%
same,% Change of Left Paw Edema at Day 16,[1]; oral dose 100-200 mg/kg,-40%
"COc1ccc2c(c1)c(CC(=O)O)c(C)n2C(=O)c1ccc(Cl)cc1 [Indomethacin, reference compound]",ED50,carrageenan paw edema,~5.6 mg/kg
same,ED50,[1],0.9 mg/kg
"CC(=O)Oc1ccccc1C(=O)O [aspirin, reference compound]",ED50,carrageenan paw edema,~250 mg/kg
same,ED50,[1],~140 mg/kg
